Data on 8 compounds can be found in patent US9745348B2 (The University of Manchester, priority 2011, dated 2017).

Where two headings read alike, the source gives them in different places. Where no end group is shown, it is not given here.

Series [1] in a line: MTT viability of fibroblasts over three days. Format: cell-based, human. Conditions: human, adult fibroblasts (HDFa cells). As for the experimental part:
(§1) MTT assay: Cell viability and proliferation is widely assessed by the MTT assay as already described previously.
(§2) The fibroblasts cells, Neonatal (HDFn) and Adult (HDFa), were both grown until greater than 80% confluent. […] After 24 hour incubation the culture medium was replaced with fresh medium containing an appropriate amount of the peptide for investigation.
(§3) The viability of the fibroblasts, Adult (HDFa) and Neonatal (HDFn) cells in the presence of surfactants was tested by MTT assay over three days relative to control wells containing cells only.

The next series is described as follows: in vitro. Type of series: cell-based. Conditions: human, neonatal fibroblasts (HDFn cells). As for the experimental part: as §1
The fibroblasts cells, Neonatal (HDFn) and Adult (HDFa), were both grown until greater than 80% confluent. The cells were then harvested and seeded into micro well plate at cell densities of 5000 cells/well in a volume […] of medium. After 24 hour incubation the culture medium was replaced with fresh medium containing an appropriate amount of the peptide for investigation.

In the next series the test system is E. coli, (EC). The series can be described thus: Bacterial growth by optical density, peptides with or without surfactants. Format: cell-based, Escherichia coli. As for the experimental part: Bacteria E. coli, (EC) and S. aureus, (SA) were grown in LB media at 37° C. with continuous shaking for 24 hours. The bacterial concentration was then adjusted such that the absorbance at 600 (A600) was controlled to ca 0.2 unit. The bacteria suspensions with the peptides were incubated in 96-well tissue culture plates. The total medium volume in each well was […]. […] Controls with media only and media with bacteria only were run alongside the peptide bacteria mixed suspensions. Measurements were taken at time t=0, t=20 and t=72 hours using optical density cell plate reader. The optical density (OD) is representative of the relative amount of bacterial growth within the medium.
The antibacterial activities of the designed short peptides in the presence of selected surfactants were investigated to determine if the peptides would sustain their antibacterial performance when surfactants are present. Bacteria E. coli, (EC) and S. aureus, (SA) were grown in LB media at 37° C. with continuous shaking for 24 hours. The bacterial concentrations were then adjusted such that the absorbance at 600 (A600) was controlled to ca 0.2 unit. The bacteria suspensions with the peptides were incubated in 96-well tissue culture plates. The total medium volume in each well was […]. […] Controls used were (i) media only, (ii) media with bacteria only and (iii) bacteria with media containing peptides at a particular concentration. These were run alongside the peptide+bacteria and selected surfactant mixed suspensions. Measurements were taken at time t=0, t=20 and t=72 hours using optical density cell plate reader. Surfactants were added such that the final concentration was 1% within the wells.

Series [2] has as its system fibroblasts Adult (HDFa) cells. Put plainly: MTT viability of fibroblasts over three days. Format: cell-based, human. As for the experimental part: as §1, §2, §3

The term viability denotes a read-out of living cells in per cent, often relative to untreated cells. For the compound GLLKKLLKKLLKKL-NH2 [GL, G(LLKK)3 L-NH2], in series [1], the viability at 24 h, 5 µM came out at 91%; the viability at 24 h, 25 µM came to 90%; the viability at 24 h, 50 µM stood at 87%; the viability at 24 h, 100 µM came to 63%. Also, in series [1], the viability at 48 h, 5 µM is 90%; the viability at 48 h, 25 µM came out at 88%; the viability at 48 h, 50 µM came to 75%; the viability at 48 h, 100 µM came out at 57%. Moreover, in series [1], the viability at 72 h, 5 µM was 87%; the viability at 72 h, 25 µM is 74%; the viability at 72 h, 50 µM worked out at 46%; the viability at 72 h, 100 µM was found to be 11%. In “in vitro”, the viability at 24 h, 5 µM is 98%; the viability at 24 h, 25 µM was 88%; the viability at 24 h, 50 µM is 85%; the viability at 24 h, 100 µM is 80%. Besides, in “in vitro”, the viability at 48 h, 5 µM was found to be 87%; the viability at 48 h, 25 µM worked out at 84%; the viability at 48 h, 50 µM is 74%; the viability at 48 h, 100 µM turned out to be 65%. Further, in the series “in vitro”, the viability at 72 h, 5 µM is 83%; the viability at 72 h, 25 µM was found to be 81%; the viability at 72 h, 50 µM was found to be 67%; the viability at 72 h, 100 µM amounted to 35%.

Take “GIKKKIIKKIIKII-NH2 [GIK, GIK(KKII)2 KII-NH2]”: in series [1], the viability at 24 h, 5 µM is 97%; the viability at 24 h, 25 µM was 92%; the viability at 24 h, 50 µM amounted to 87%; the viability at 24 h, 100 µM turned out to be 85%. Also, in series [1], the viability at 48 h, 5 µM was found to be 95%; the viability at 48 h, 25 µM amounted to 93%; the viability at 48 h, 50 µM turned out to be 78%; the viability at 48 h, 100 µM came to 74%. In series [1], the viability at 72 h, 5 µM amounted to 91%; the viability at 72 h, 25 µM worked out at 90%; the viability at 72 h, 50 µM is 73%; the viability at 72 h, 100 µM was determined as 65%. In “in vitro”, the viability at 24 h, 5 µM stood at 93%; the viability at 24 h, 25 µM amounted to 98%; the viability at 24 h, 50 µM came to 92%; the viability at 24 h, 100 µM was found to be 85%. Moreover, in the series “in vitro”, the viability at 48 h, 5 µM was found to be 87%; the viability at 48 h, 25 µM was 84%; the viability at 48 h, 50 µM turned out to be 81%; the viability at 48 h, 100 µM turned out to be 78%. Further, in the series “in vitro”, the viability at 72 h, 5 µM was determined as 83%; the viability at 72 h, 25 µM came out at 78%; the viability at 72 h, 50 µM came to 75%; the viability at 72 h, 100 µM stood at 71%.

Regarding “GIIKKIIKKI-NH2 [Helix G2, G(IIKK)2 I-NH2]”, in series [1], the viability at 24 h, 5 µM was 101%; the viability at 24 h, 25 µM was determined as 98%; the viability at 24 h, 50 µM was 92%; the viability at 24 h, 100 µM is 91%. For the same compound, in series [1], the viability at 48 h, 5 µM amounted to 96%; the viability at 48 h, 25 µM came to 90%; the viability at 48 h, 50 µM came out at 90%; the viability at 48 h, 100 µM came out at 88%. In addition, in series [1], the viability at 72 h, 5 µM was determined as 95%; the viability at 72 h, 25 µM stood at 88%; the viability at 72 h, 50 µM stood at 79%; the viability at 72 h, 100 µM came to 80%.

For the compound `CC1(C)S[C@@H]2[C@H](NC(=O)[C@H](N)c3ccccc3)C(=O)N2[C@H]1C(=O)O` [Ampicillin, ampicillin], the “bacterial growth (optical density)” value amounted to 0.20 in the series with E. coli, (EC) (T = 0 HOUR, NO SURF, 25 μM); 0.20 in the series with E. coli, (EC) (T = 0 HOUR, NO SURF, 50 μM); 0.19 in the series on E. coli, (EC) (T = 0 HOUR, NO SURF, 100 μM); 0.27 in the series on E. coli, (EC) (T = 0 HOUR, with 1% C12TAB, 25 μM); 0.26 in the series with E. coli, (EC) (T = 0 HOUR, with 1% C12TAB, 50 μM); 0.27 in the series on E. coli, (EC) (T = 0 HOUR, with 1% C12TAB, 100 μM). Besides, the “bacterial growth (optical density)” value is 0.20 in the series on E. coli, (EC) (T = 0 HOUR, with 1% F127, 25 μM); 0.20 in the series on E. coli, (EC) (T = 0 HOUR, with 1% F127, 50 μM); 0.17 with E. coli, (EC) (T = 0 HOUR, with 1% F127, 100 μM); 0.21 with E. coli, (EC) (T = 0 HOUR, with 1% Mx, 25 μM); 0.20 in the series with E. coli, (EC) (T = 0 HOUR, with 1% Mx, 50 μM); 0.20 in the series on E. coli, (EC) (T = 0 HOUR, with 1% Mx, 100 μM). Besides, the “bacterial growth (optical density)” value was 0.22 in the series on E. coli, (EC) (T = 0 HOUR, with 1% SLES, 25 μM); 0.18 in the series with E. coli, (EC) (T = 0 HOUR, with 1% SLES, 50 μM); 0.15 in the series on E. coli, (EC) (T = 0 HOUR, with 1% SLES, 100 μM); 0.22 in the series on E. coli, (EC) (T = 0 HOUR, with 1% Tt, 25 μM); 0.15 with E. coli, (EC) (T = 0 HOUR, with 1% Tt, 50 μM); 0.14 in the series with E. coli, (EC) (T = 0 HOUR, with 1% Tt, 100 μM). In addition, the “bacterial growth (optical density)” value in the series on E. coli, (EC) (T = 20 HOUR, NO SURF, 25 μM) came out at 0.20; with E. coli, (EC) (T = 20 HOUR, NO SURF, 50 μM) it was 0.16; in the series on E. coli, (EC) (T = 20 HOUR, NO SURF, 100 μM), 0.16; in the series with E. coli, (EC) (T = 20 HOUR, with 1% C12TAB, 25 μM), 0.27; with E. coli, (EC) (T = 20 HOUR, with 1% C12TAB, 50 μM), 0.26; in the series with E. coli, (EC) (T = 20 HOUR, with 1% C12TAB, 100 μM), 0.26. Further, the “bacterial growth (optical density)” value was 0.15 in the series with E. coli, (EC) (T = 20 HOUR, with 1% F127, 25 μM); 0.13 in the series with E. coli, (EC) (T = 20 HOUR, with 1% F127, 50 μM); 0.14 with E. coli, (EC) (T = 20 HOUR, with 1% F127, 100 μM); 0.32 in the series on E. coli, (EC) (T = 20 HOUR, with 1% Mx, 25 μM); 0.28 in the series on E. coli, (EC) (T = 20 HOUR, with 1% Mx, 50 μM); 0.25 with E. coli, (EC) (T = 20 HOUR, with 1% Mx, 100 μM). Besides, the “bacterial growth (optical density)” value with E. coli, (EC) (T = 20 HOUR, with 1% SLES, 25 μM) was determined as 0.08; in the series on E. coli, (EC) (T = 20 HOUR, with 1% SLES, 50 μM), 0.08; with E. coli, (EC) (T = 20 HOUR, with 1% SLES, 100 μM), 0.06; in the series on E. coli, (EC) (T = 20 HOUR, with 1% Tt, 25 μM), 0.09; in the series with E. coli, (EC) (T = 20 HOUR, with 1% Tt, 50 μM), 0.07; in the series on E. coli, (EC) (T = 20 HOUR, with 1% Tt, 100 μM) it was 0.07.

For `CCCCCCCCCCCCOCCOCCOCCOCCOCCO` [Helix C12E5, Pentaethylene glycol monododecyl ether], the “MTT results (relative MTT reading)” value in series [2] (human, 1 day, 0.5 %) came to 0.01; in series [2] (human, 2 day, 0.5 %) it was 0.01; in series [2] (human, 3 day, 0.5 %), 0.01.

With `CCCCCCCCCCCCOCCOCCOCCOCCOCCOCCO` [Helix C12E6, Hexaethylene glycol monododecyl ether], the “MTT results (relative MTT reading)” value in series [2] (human, 1 day, 1 %) was 0.01; in series [2] (human, 2 day, 1 %) it was 0.01; in series [2] (human, 3 day, 1 %), 0.01.

Regarding `CCCCCCCCCCCCOS(=O)(=O)[O-].[Na+]` [SDS, Sodium dodecyl sulphate], the “MTT results (relative MTT reading)” value was found to be 0.01 in series [2] (HDFa, surfactant 1%, Day 1); 0.01 in series [2] (HDFa, surfactant 1%, Day 2); 0.01 in series [2] (HDFa, surfactant 1%, Day 3).

For the compound cocamide ethanolamines [CMEA], the “MTT results (relative MTT reading)” value in series [2] is reported as 0.00.
